From US5284862A, “Derivatives of 2-carboxyindoles having pharmaceutical activity” (Warner-Lambert Company, priority 1992, dated 1994)

How the values were obtained:
AMPA receptor = experiment: AMPA binding assay ([3H]-AMPA); settings: [3H]-AMPA binding; unit inferred
Text: The AMPA binding assay may also be performed to provide an activity profile for the compounds of the present invention.

[1] = biological target: T1, strychnine insensitive glycine receptor which is located on the NMDA receptor complex (Rattus norvegicus, UniProt P35439); experiment: glycine binding assay ([3H]-Gly); settings: for inhibition at 10 µM: read-out: [3H]-Gly, % Inh. at 10 μM; for IC50: [3H]-glycine binding
T1 construct: from tissue
Protocol: Specifically, the compounds of the present invention have activity as antagonists at the strychnine insensitive glycine receptor which is located on the NMDA receptor complex. As such, the compounds of the present invention are NMDA receptor antagonists. Also, the compounds of the present invention have activity as AMPA and kainate receptor antagonists.
The glycine binding assay is performed essentially as described by W. Frost White, et al, Journal of Neurochemistry 1989;53(2):503-12.

cortical neuronal cells = experiment: glutamate-induced lactate dehydrogenase (LDH) efflux assay; assay type: cell-based; settings: glutamate exposure 5 minutes; LDH released into the culture medium 1 day after exposure
Protocol: The glutamate-induced lactate dehydrogenase (LDH) efflux assay is also used to measure the activity of the compounds of the present invention. Procedures for evaluating neurotoxicity in cortical neuronal cells by measuring efflux of LDH are carried out similarly as described by J. Y. Koh and D. W. Choi, J. Neurosci. Methods 1987;20:83-90. Only mature ([…] in vitro) cortical cultures were selected for study. Cells were exposed for 5 minutes to a glutamate exposure solution. Compounds tested were added to the glutamate exposure medium. In all experiments the glutamate exposure was removed and fresh buffer was added. Overall neuronal injury was quantitatively assessed by measurement of LDH released into the culture medium 1 day after glutamate exposure (see J. G. Klingman, D. M. Hartley, D. W. Choi, J. Neurosci. Methods 1989;31:47-51) using a 96-well plate reader.

Row | IC50 (AMPA receptor) [µM] | inhibition at 10 µM [1] [%] | IC50 (cortical neuronal cells) [µM] | IC50 [1] [µM] | Structure (SMILES)
1 | 213 | 84 | – | – | O=C(/C=C/c1c(C(=O)O)[nH]c2cc(Cl)cc(Cl)c12)NCc1ccccc1
2 | 150 | – | 6 | 0.079 | [N-]=[N+]=Nc1cccc(S(=O)(=O)NC(=O)CCc2c(C(=O)O)[nH]c3cc(Cl)cc(Cl)c23)c1
3 | 108 | 89 | – | – | O=C(CCCc1c(C(=O)O)[nH]c2cc(Cl)cc(Cl)c12)NS(=O)(=O)c1ccccc1
4 | 113 | – | 7.8 | 0.068 | O=C(CCc1c(C(=O)O)[nH]c2cc(Cl)cc(Cl)c12)NS(=O)(=O)c1ccccc1
5 | 80 | – | 21.5 | 0.543 | CS(=O)(=O)NC(=O)CCc1c(C(=O)O)[nH]c2cc(Cl)cc(Cl)c12
6 | 203 | – | 10.2 | 0.18 | O=C(O)/C=C/c1c(C(=O)O)[nH]c2cc(Cl)cc(Cl)c12
7 | 122 | 87 | – | – | O=C(/C=C/c1c(C(=O)O)[nH]c2cc(Cl)cc(Cl)c12)NS(=O)(=O)c1ccccc1
